Key:
ABL1 = ABL1 (Homo sapiens, UniProt P00519); test: kinase panel; type: biochemical
FMS = FMS (Homo sapiens, UniProt P07333); test: kinase panel; type: biochemical
ROCK1 = ROCK1 (Homo sapiens, UniProt Q13464); test: kinase panel; type: biochemical
FRAP1 = FRAP1 (Homo sapiens, UniProt P42345); test: kinase panel; type: biochemical
PAK5 = PAK5 (Homo sapiens, UniProt Q9P286); test: kinase panel; type: biochemical
ALK5 = ALK5 (Homo sapiens, UniProt P36897); test: kinase panel; type: biochemical
ALK6 = ALK6 (Homo sapiens, UniProt O00238); test: kinase panel; type: biochemical
GSK-3-BETA = GSK-3-BETA (Homo sapiens, UniProt P49841); test: kinase panel; type: biochemical
MEK1 = MEK1 (Homo sapiens, UniProt Q02750); test: kinase panel; type: biochemical
HASPIN = HASPIN (Homo sapiens, UniProt Q8TF76); test: kinase panel; type: biochemical
PI3K-DELTA = PI3K-DELTA (Homo sapiens, UniProt O00329); test: kinase panel; type: biochemical
HIPK3 = HIPK3 (Homo sapiens, UniProt Q9H422); test: kinase panel; type: biochemical
SNF1LK2 = SNF1LK2 (Homo sapiens, UniProt Q9H0K1); test: kinase panel; type: biochemical
SRPK1 = SRPK1 (Homo sapiens, UniProt Q96SB4); test: kinase panel; type: biochemical
EGFR = EGFR (Homo sapiens, UniProt P00533); test: kinase panel; type: biochemical
MSSK1 = MSSK1 (Homo sapiens, UniProt Q9UPE1); test: kinase panel; type: biochemical
MST4 = MST4 (Homo sapiens, UniProt Q9P289); test: kinase panel; type: biochemical
JAK1 = JAK1 (Homo sapiens, UniProt P23458); test: kinase panel; type: biochemical
MUSK = MUSK (Homo sapiens, UniProt O15146); test: kinase panel; type: biochemical
EPH-A8 = EPH-A8 (Homo sapiens, UniProt P29322); test: kinase panel; type: biochemical
PKC-ZETA = PKC-ZETA (Homo sapiens, UniProt Q05513); test: kinase panel; type: biochemical
JAK3 = JAK3 (Homo sapiens, UniProt P52333); test: kinase panel; type: biochemical
PKN1 = PKN1 (Homo sapiens, UniProt Q16512); test: kinase panel; type: biochemical
JNK2 = JNK2 (Homo sapiens, UniProt P45984); test: kinase panel; type: biochemical
CDK1 = CDK1 (Homo sapiens, UniProt P06493); test: kinase panel; type: biochemical
PLK4 = PLK4 (Homo sapiens, UniProt O00444); test: kinase panel; type: biochemical
TNK2 = TNK2 (Homo sapiens, UniProt Q07912); test: kinase panel; type: biochemical
CDK3-CYCLINE = CDK3-CYCLINE (Homo sapiens, UniProt Q00526); test: kinase panel; type: biochemical
CDK4-CYCLIND = CDK4-CYCLIND (Homo sapiens, UniProt P11802); test: kinase panel; type: biochemical
TRKC = TRKC (Homo sapiens, UniProt Q16288); test: kinase panel; type: biochemical
LIMK1 = LIMK1 (Homo sapiens, UniProt P53667); test: kinase panel; type: biochemical
FGFR2 = FGFR2 (Homo sapiens, UniProt P21802); test: kinase panel; type: biochemical
FGFR3 = FGFR3 (Homo sapiens, UniProt P22607); test: kinase panel; type: biochemical
LRRK2-G2019S = LRRK2-G2019S (Homo sapiens, UniProt Q5S007, G2019S); test: kinase panel; type: biochemical
PRKX = PRKX (Homo sapiens, UniProt P51817); test: kinase panel; type: biochemical
PTK5 = PTK5 (Homo sapiens, UniProt P42685); test: kinase panel; type: biochemical
H1 receptor = H1 receptor (Homo sapiens, UniProt P35367); test: H1 receptor calcium assay; type: cell-based
Monoamine Oxidase A = Monoamine Oxidase A (Homo sapiens, UniProt P21397); test: Monoamine Oxidase A assay; type: biochemical
[1] = target: Norepinephrine Transporter (Homo sapiens, UniProt P23975); test: Norepinephrine Transporter assay; type: binding
Phosphodiesterase 3 = Phosphodiesterase 3 (Homo sapiens, UniProt Q14432); test: Phosphodiesterase 3 assay; type: biochemical
Serotonin 5HT2A = Serotonin 5HT2A (Homo sapiens, UniProt P28223); test: Serotonin 5HT2A calcium flux assay; type: cell-based
[2] = Mouse pharmacokinetic studies; type: in vivo; details: 20 mg/kg

Chain of HIPK3 (Q9H422 whole entry): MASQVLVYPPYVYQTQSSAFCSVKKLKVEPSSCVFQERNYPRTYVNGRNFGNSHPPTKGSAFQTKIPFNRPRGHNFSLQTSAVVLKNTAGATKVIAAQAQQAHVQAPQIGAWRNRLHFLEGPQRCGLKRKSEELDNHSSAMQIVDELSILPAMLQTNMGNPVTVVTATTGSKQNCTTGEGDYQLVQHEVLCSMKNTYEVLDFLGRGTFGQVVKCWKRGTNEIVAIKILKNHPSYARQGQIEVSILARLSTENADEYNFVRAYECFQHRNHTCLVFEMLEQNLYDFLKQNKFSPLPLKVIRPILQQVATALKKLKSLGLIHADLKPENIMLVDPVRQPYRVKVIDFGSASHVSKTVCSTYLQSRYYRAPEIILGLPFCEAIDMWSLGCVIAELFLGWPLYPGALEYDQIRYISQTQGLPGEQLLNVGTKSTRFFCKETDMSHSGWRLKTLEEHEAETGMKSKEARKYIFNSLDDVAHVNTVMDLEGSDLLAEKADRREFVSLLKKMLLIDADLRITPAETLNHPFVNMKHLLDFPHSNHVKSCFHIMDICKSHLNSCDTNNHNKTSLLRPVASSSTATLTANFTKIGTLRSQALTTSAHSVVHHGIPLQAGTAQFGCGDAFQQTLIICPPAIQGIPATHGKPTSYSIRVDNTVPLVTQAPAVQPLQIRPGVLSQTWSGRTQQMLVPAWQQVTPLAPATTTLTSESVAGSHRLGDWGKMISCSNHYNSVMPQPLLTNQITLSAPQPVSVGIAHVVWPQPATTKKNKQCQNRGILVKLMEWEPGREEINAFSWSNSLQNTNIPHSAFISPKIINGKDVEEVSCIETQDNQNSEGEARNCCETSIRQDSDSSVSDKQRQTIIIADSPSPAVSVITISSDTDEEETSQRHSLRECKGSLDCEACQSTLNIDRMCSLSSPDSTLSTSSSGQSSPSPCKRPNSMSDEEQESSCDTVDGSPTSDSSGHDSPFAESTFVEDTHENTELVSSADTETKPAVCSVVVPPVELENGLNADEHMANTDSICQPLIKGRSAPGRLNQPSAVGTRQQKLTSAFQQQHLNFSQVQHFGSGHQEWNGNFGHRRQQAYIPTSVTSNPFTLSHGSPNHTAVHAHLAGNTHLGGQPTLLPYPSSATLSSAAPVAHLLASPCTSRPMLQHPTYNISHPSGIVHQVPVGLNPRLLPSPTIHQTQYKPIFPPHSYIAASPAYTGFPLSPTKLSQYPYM
Chain of LRRK2-G2019S (Q5S007 whole entry G2019S): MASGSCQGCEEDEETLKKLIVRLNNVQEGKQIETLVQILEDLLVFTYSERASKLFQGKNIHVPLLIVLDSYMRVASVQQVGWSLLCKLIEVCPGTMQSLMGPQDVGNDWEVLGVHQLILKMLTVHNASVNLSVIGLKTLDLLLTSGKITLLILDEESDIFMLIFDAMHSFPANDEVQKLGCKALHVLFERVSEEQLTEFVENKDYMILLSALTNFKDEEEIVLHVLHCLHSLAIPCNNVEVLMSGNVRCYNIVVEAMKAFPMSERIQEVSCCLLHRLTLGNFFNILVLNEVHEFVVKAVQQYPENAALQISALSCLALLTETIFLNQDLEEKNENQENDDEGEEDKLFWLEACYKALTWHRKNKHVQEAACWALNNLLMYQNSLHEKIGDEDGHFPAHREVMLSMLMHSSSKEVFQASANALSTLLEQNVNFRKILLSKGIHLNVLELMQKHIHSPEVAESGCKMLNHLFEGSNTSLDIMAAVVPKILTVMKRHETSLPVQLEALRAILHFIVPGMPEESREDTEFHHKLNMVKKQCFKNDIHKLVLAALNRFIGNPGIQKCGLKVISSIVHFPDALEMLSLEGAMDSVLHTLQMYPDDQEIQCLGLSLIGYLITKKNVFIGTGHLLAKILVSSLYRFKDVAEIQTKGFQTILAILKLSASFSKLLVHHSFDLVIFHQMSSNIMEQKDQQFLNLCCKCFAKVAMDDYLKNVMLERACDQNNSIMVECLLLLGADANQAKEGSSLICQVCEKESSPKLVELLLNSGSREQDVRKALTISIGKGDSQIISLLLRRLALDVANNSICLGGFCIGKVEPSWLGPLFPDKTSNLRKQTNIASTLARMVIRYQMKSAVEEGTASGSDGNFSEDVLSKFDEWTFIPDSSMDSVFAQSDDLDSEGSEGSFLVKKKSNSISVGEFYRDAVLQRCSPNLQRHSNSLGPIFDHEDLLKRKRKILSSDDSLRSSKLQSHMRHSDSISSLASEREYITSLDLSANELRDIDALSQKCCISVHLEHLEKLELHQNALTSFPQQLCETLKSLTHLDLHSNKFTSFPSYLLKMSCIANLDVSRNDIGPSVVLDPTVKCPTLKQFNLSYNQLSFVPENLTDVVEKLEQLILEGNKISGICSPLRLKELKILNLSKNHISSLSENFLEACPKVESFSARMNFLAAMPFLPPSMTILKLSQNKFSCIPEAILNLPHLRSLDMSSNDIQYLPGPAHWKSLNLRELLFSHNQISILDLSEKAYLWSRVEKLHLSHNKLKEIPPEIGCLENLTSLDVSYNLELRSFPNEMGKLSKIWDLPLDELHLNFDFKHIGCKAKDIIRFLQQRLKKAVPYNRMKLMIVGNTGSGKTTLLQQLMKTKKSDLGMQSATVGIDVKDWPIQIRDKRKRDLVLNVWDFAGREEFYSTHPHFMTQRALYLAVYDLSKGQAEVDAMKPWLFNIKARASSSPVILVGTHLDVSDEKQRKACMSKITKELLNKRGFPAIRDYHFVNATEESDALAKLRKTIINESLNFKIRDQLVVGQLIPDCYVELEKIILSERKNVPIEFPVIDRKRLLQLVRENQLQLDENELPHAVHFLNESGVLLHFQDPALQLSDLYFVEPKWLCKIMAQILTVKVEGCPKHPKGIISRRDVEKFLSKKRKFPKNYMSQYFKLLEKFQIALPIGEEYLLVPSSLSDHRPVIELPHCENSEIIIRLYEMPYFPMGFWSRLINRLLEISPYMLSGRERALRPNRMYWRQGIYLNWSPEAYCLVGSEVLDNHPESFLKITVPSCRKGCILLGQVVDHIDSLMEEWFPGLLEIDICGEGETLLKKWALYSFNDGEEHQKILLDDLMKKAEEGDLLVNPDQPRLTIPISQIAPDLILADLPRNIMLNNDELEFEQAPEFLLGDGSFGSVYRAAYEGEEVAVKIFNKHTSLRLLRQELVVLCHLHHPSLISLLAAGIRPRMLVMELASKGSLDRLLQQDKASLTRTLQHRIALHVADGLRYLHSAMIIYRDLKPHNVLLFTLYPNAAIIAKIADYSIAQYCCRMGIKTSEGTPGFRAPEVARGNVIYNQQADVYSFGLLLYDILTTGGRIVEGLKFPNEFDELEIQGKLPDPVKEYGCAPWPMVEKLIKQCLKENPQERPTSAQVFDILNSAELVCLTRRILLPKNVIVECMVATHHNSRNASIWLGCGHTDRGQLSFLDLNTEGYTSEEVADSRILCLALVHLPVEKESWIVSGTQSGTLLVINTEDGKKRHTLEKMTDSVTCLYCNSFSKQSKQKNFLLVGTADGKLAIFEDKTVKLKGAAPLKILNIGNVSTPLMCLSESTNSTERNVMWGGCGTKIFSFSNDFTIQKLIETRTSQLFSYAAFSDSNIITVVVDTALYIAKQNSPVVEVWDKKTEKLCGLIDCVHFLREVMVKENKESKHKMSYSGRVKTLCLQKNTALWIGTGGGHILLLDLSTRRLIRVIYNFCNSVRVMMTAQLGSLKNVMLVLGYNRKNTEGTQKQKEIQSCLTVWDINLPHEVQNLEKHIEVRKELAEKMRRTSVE
Chain of ALK5 (P36897 34-503): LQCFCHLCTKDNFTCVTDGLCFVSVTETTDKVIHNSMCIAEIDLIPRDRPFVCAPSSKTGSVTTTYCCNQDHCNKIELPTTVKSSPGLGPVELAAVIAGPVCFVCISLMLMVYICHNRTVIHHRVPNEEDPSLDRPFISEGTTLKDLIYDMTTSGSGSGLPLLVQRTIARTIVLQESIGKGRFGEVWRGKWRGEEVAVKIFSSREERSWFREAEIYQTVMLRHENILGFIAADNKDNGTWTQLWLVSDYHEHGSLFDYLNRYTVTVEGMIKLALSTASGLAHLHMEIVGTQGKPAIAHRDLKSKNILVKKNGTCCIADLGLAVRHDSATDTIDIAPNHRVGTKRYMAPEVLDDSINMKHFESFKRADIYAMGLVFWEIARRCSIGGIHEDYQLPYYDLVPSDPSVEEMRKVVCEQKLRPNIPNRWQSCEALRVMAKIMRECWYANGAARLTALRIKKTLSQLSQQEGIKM
Chain of PKN1 (Q16512 whole entry): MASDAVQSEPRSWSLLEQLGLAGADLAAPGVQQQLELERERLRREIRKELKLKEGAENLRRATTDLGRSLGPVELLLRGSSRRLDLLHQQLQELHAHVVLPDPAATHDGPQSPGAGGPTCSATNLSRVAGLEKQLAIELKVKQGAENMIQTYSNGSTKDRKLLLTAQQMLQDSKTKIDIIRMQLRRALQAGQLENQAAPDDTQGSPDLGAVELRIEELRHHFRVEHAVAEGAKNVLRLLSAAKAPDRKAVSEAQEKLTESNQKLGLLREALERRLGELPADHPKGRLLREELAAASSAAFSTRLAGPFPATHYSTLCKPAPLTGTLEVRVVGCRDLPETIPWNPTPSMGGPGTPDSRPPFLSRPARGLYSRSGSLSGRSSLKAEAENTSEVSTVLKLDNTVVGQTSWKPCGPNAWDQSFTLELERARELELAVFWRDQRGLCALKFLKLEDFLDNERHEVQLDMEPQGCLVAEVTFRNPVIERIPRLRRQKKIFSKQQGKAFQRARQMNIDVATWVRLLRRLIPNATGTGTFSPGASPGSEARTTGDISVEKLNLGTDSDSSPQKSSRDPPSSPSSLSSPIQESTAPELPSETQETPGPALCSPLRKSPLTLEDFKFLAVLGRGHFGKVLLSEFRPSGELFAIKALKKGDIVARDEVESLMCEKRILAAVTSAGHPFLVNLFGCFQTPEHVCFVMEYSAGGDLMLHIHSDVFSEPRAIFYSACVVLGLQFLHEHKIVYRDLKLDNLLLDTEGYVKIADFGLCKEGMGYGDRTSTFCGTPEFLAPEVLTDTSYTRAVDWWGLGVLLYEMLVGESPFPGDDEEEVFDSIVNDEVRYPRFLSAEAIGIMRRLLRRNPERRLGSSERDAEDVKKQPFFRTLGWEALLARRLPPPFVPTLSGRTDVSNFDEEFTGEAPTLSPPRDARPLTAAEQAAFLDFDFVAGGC

inhibition at 1 µM (ABL1): 1%
inhibition at 1 µM (FMS): 0%
inhibition at 1 µM (ROCK1): 0%
inhibition at 1 µM (FRAP1): 0%
inhibition at 1 µM (PAK5): 0%
inhibition at 1 µM (ALK5): 0%
inhibition at 1 µM (ALK6): 0%
inhibition at 1 µM (GSK-3-BETA): 0%
inhibition at 1 µM (MEK1): 0%
inhibition at 1 µM (HASPIN): 1%
inhibition at 1 µM (PI3K-DELTA): 0%
inhibition at 1 µM (HIPK3): 0%
inhibition at 1 µM (SNF1LK2): 0%
inhibition at 1 µM (SRPK1): 0%
inhibition at 1 µM (EGFR): 7%
inhibition at 1 µM (MSSK1): 0%
inhibition at 1 µM (MST4): 0%
inhibition at 1 µM (JAK1): 0%
inhibition at 1 µM (MUSK): 0%
inhibition at 1 µM (EPH-A8): 0%
inhibition at 1 µM (PKC-ZETA): 0%
inhibition at 1 µM (JAK3): 0%
inhibition at 1 µM (PKN1): 0%
inhibition at 1 µM (JNK2): 0%
inhibition at 1 µM (CDK1): 2%
inhibition at 1 µM (PLK4): 0%
inhibition at 1 µM (TNK2): 2%
inhibition at 1 µM (CDK3-CYCLINE): 0%
inhibition at 1 µM (CDK4-CYCLIND): 0%
inhibition at 1 µM (TRKC): 4%
inhibition at 1 µM (LIMK1): 0%
inhibition at 1 µM (FGFR2): 1%
inhibition at 1 µM (FGFR3): 1%
inhibition at 1 µM (LRRK2-G2019S): 0%
inhibition at 1 µM (PRKX): 3%
inhibition at 1 µM (PTK5): 0%
IC50 (H1 receptor): > 30 µM
IC50 (Monoamine Oxidase A): > 30 µM
IC50 [1]: > 30 µM
IC50 (Phosphodiesterase 3): > 30 µM
IC50 (Serotonin 5HT2A): > 30 µM
maximal plasma concentration [2]: 0.57 µM
half-life ([2]; plasma, oral): 2.15 h
SMILES: O=C(Nc1nccs1)C(c1cc(F)ccc1O)N1Cc2ccccc2C1=O (stereo not shown) [EAI045, 2-(5-fluoro-2-hydroxyphenyl)-2-(1-oxo-2,3-dihydro-1H-isoindol-2-yl)-N-(1,3-thiazol-2-yl)acetamide]

Reference: article PMC4929832 (Nature, 2016)
